Laboratory results: patent US12503448B2, “Antibacterial and antiparasitic quinoxaline-2,3-diamine derivatives” (University College Cardiff Consultants Limited, priority 2019, dated 2025)
Values after ≈ are worked out from the molar mass of the structure shown. Where two headings read alike, the source gives them in different places.

Assays:
S. mansoni schistosomula = experiment: 72 hours schistosomula drug screen; assay type: cell-based, Schistosoma mansoni; conditions: for Selectivity Index Schistosomula: HepG2 CC50 over schistosomula EC50; for EC50: Schistosoma mansoni
Description: Biological Screening 72 Hours Schistosomula Drug Screen […] G. Colley, […], Schistosoma mansoni: simplified method for the production of schistosomules., Exp. Parasitol. 35 (1974) 44-51. Newly transformed schistosomula were prepared for 72 hour high throughput screening (HTS) in 384-well black-sided microtiter plates (Perkin Elmer, MA, USA) as described in M. Nur-e-alam, M. Yousaf, […]. Bari, H. A. Ghabbour, […]. Ho, A. J. […], Neoclerodane Diterpenoids from […], Teucrium […]. Nat. […] The data obtained in this manner is shown in Table 1 in the columns labelled “Phenotype”, “Motility” and “Schistosomula average”.

[1] = system: F. hepatica newly excysted juveniles (NEJs); experiment: Newly excysted juveniles (NEJs) drug screen; assay type: cell-based, Fasciola hepatica; parameters: scale not given here; conditions: 10 μM, 72 h; higher score indicates lower worm activity
Description: Newly Excysted Juveniles (NEJs) Drug Screen
F. hepatica (Italian strain) metacercariae were obtained from Ridgeway Research, Gloucestershire, UK and stored at 4° C. Newly excysted juveniles (NEJs) from metacercariae were produced based on an optimisation introduced to the excystment method published by Dixon et al. and Wilson et al (Dixon, K. E., The physiology of excystment of the metacercaria of Fasciola hepática L. Parasitology, 1966, 56, 431-456.; Wilson, L. R., Good, R. T., Panaccio, M., Wijffels, G. L., Sandeman, R. M., Spithill, T. W, Fasciola hepatica: Characterization and Cloning of the Major Cathepsin B Protease Secreted by Newly Excysted Juvenile Liver Fluke. Experimental Parasitology 1998, 88, 85-94).
After excystment, NEJs were distributed into a 24 well tissue culture plate at a density of 25 parasites per well containing 1 mL of pre-warmed NEJs culture media. Compounds were added to respective wells and NEJ/compound co-cultures were incubated at 37° C. in an atmosphere containing 5% CO2 for 72 hours at a final concentration of 10 μM.
F. hepatica NEJs (25 per well) were incubated with the three compounds at a concentration of 10 μM (in 0.1% DMSO) and cultured for 72 hrs at 37° C. in an atmosphere containing 5% CO2. Control wells (25 NEJs per well) included those containing 0.1% DMSO (solvent) and RMPI (media) as negative controls or 10 μM Triclabendazole (0.1% DMSO, as positive control, labelled “Tbz” (Comp. 3). After 72 hrs, all NEJs were scored for phenotype and motility metrics. For each treatment, an average of both phenotype and motility score was calculated based on the individual parasite scores (across two independent replicates), wherein a higher score indicates lower worm activity. SD is reported on the bar chart.

[2] = Mouse pharmacokinetics, oral cassette dosing; conditions: for AUC(0-t) / Cmax / MRT last / Tmax: male, C57/BL6, mouse, plasma, po, 2.5 mg/kg; for Tlast: oral, nominal dose 2.5 mg/kg, cassette
Description: Non-compartmental mouse pharmacokinetics (Male C57/BL6 Mouse, Fasted; 3 mice per group) were determined after oral administration of a nominal dose of 2.5 mg/kg of these formulations in cassettes (5 compounds/group) according to the protocols employed by WuXi (https://www.wuxiapptec.com; the CRO that conducted these studies).

Schistosoma mansoni = experiment: Anti-schistosomal in vivo efficacy screen (murine model of schistosomiasis); conditions: 100 mg/kg oral, two doses (day 1 and day 3), mice
Description: Anti-Schistosomal in vivo Efficacy Screen
An anti-schistosomal efficacy trial of the compounds described herein was conducted on a murine model of Schistosomiasis using the following procedure. Schistosoma mansoni cercaria were prepared from infected Biomphalaria glabrata snails by inducing synchronous shedding upon exposure to light for 40 minutes (in artificial pond water). […] A maximum of 6 mice were housed in a cage for the duration of the 7-week infection.
At 6 wks post infection (Day 42 post infection), mice were dosed with anthelmintic chemicals using autoclaved gavage needles for oral delivery. The gavage needle was dipped into a concentrated solution of sucrose (approx. 1 g/ml) before dosing as a refinement measure to reduce stress-related reactions.
For oral dosing, the compounds (dry powder) were weighed and prepared in an appropriate excipient (e.g. 10% DMSO, 20% Kolliphor EL and 70% sterile water). […]
At the end of the treatment (on day 48 post-infection), mice were perfused after receiving an intra-peritoneal administration of non-recoverable dose of sodium pentobarbital (100 μl/10 g body weight) containing 100 U/ml heparin solution (in 1×PBS). […] After incubation in a humidified environment containing 5% CO2 at 37° C. for at least 1 h, the quantification of worm burden per each mouse of each treatment was performed. […]

[3] = Semi thermodynamic solubility; conditions: thermodynamic from solid
[4] = Metabolic stability in mouse liver microsomes; conditions: liver microsomes
in vitro = conditions: plasma
S. mansoni adult worms = experiment: Adult worm drug screen (WHO scoring, WormassayGP2); assay type: cell-based, Schistosoma mansoni
Description: Mice (MF-1 mice, Harlan, UK), infected 7 weeks previously with 180 cercaria, were euthanised with an intraperitoneal injection of phenobarbital/heparin solution. Adult worms were recovered by perfusion of the portal system and subjected to drug screening as previously described in Padalino G, Ferla S, Brancale A, Chalmers I W, Hoffmann K F. Int J Parasitol Drugs Drug Resist. 2018 December; 8(3):559-570; in Whiteland H L, Chakroborty A, Forde-Thomas J E, Crusco A, Cookson A, Hollinshead J, Fenn C A, Bartholomew B, Holdsworth P A, Fisher M, Nash R J, Hoffmann K F. Int J Parasitol Drugs Drug Resist. 2018 December; 8(3):465-474; and in Crusco A, Bordoni C, Chakroborty A, Whatley K C L, Whiteland H, Westwell A D, Hoffmann K F. Eur J Med Chem. 2018 May 25; 152:87-100. The data obtained in this manner is shown in Table 1 in the columns labelled “Adult worm”.
Regarding the quantification of drug treatment on adult worms (e.g. decreased activity, paralysis or sluggishness), two different approaches were used, as described below. Where egg deposition was noticed, eggs were removed and counted using a Sedgewick rafter slide.
Adult worms were scored using the standardized microscopic WHO-TDR scoring system previously described by Ramirez, B., Bickle, Q., Yousif, F., Fakorede, F., Mouries, M.-A., Nwaka, S. in Schistosomes: Challenges in compound screening, Expert Opin Drug Discov. 2007 October; 2(s1): S53-61. This scoring system (0-4) identifies changes in worm movement and is defined according to the following scoring matrix: 0=no movement, 1=no movement with visible gut peristalsis, 2=minimal movement (occasional movement from anterior or posterior end of the worm), 3=slow continuous movement and 4=normal movement.
A digital image processing-based system was also used to assess parasite motility after drug treatment and is a modification of methods previously described by Marcellino C., Gut, J., Lim, K., Singh R., McKerrow, L. and Sakanari, J. WormAssay: a novel computer application for whole-plate motion-based screening of macroscopic parasites. PLoS Negl Trop Dis. 2012 January:6(1):e1494. This allowed for objective verification of the WHO method described above. The data obtained with this quantification method is shown in Table 1 in the columns labelled “Adult worm”.

MTT assay on HepG2 cells = assay type: cell-based; conditions: human
Description: MTT Assay on HepG2 Cells Human Hepatocyte Carcinoma (HepG2) cells (85011430, Sigma Aldrich) were used to assess the overt toxicity of these anti-infective compounds. […] A negative control (1% v/v Triton X-100; X100, Sigma-Aldrich) was also included in each screen. After addition of compounds, each plate was then incubated for a further 20 hrs before application of MTT reagent (prepared as described in Nur-[…], Bari A, Ghabbour […], Hoffmann […] Nat Prod. 2017 Jun. 23; 80(6):1900-1908 for the assessment of compound cytotoxicity using the MTT assay. […] The plate was then further incubated for 4 hrs. After incubation, each plate was blotted dry under the laminar flow to remove the MTT treated culture media. A 100 μl DMSO: isopropanol (1:1) solution was then added to each well and the plate was then subsequently incubated for 10 minutes at 37° C. Following incubation, each plate was shaken again and then absorbance measured at 570 nm. The absorbance reading was corrected based on the average value of the wells used as blank (no cells). […] The data obtained in this manner is shown in Table 1 in the columns labelled “HepG2”. […] The selectivity indexes for schistosomula and adult worms are shown in the final two columns in Table 1.

H3K4 methylation = experiment: Histone extraction and detection of global H3K4 methylation in treated adult worms; assay type: cell-based, Schistosoma mansoni; conditions: sub-lethal concentration 0.0024 μM, male and female adult worms
[5] = average of phenotype and motility, read-out: EC50 Schistosomula average
[6] = schistosomula, 72 hour culture, read-out: EC50 Motility
[7] = schistosomula, 72 hour culture, read-out: EC50 Phenotype

| SMILES | Selectivity Index Schistosomula (S. mansoni schistosomula) | EC50 (S. mansoni schistosomula; [5]) | EC50 (S. mansoni schistosomula; [6]) | EC50 (S. mansoni schistosomula; [7]) | Motility (M) Mean score [1] | Phenotype (P) Mean score [1] | AUC(0-t) [2] | Cmax [2] | MRT last [2] | Tmax [2] | Tlast [2] | solubility thermodynamic [3] | half-life at 1 μM [4] | microsomal CLint at 1 μM [4] | further results |
| --- | --- | --- | --- | --- | --- | --- | --- | --- | --- | --- | --- | --- | --- | --- | --- |
| O=[N+]([O-])c1ccc2nc(Nc3ccc(Cl)cc3)c(Nc3ccc(Cl)cc3)nc2c1 [Compound 4, N^2, N^3-bis(4-chlorophenyl)-6-nitroquinoxaline-2,3-diamine] | 28 | 470 nM | 530 nM | 400 nM | 4.71 | 5.13 | 436 ng·h/mL | 90.4 ng/mL | 4.25 h | 3.33 h | 8.00 h | 12.7 µM (≈ 5.41 µg/mL) | 2.52 h | 9.18 µL/min/mg | reduction in worm burden in vivo compared to the vehicle (Schistosoma mansoni): 35.5%; reduction in egg count in vivo compared to the vehicle (Schistosoma mansoni; liver eggs): 39.9% |
| CC(=O)CC(c1ccccc1)c1c(O)c2ccccc2oc1=O (stereo not drawn) [Warfarin, reference compound] | – | – | – | – | – | – | – | – | – | – | – | > 100 µM | – | – | fraction unbound (in vitro): 0.0727 |
| O=[N+]([O-])c1ccc2nc(Nc3cc(C(F)(F)F)ccc3F)c(Nc3cc(C(F)(F)F)ccc3F)nc2c1 [Compound 9, N^2, N^3-bis(2-fluoro-5-(trifluoromethyl)phenyl)-6-nitroquinoxaline-2,3-diamine] | 223 | 480 nM | 470 nM | 480 nM | 3.68 | 4.63 | 337 ng·h/mL | 79.3 ng/mL | 4.22 h | 4 h | 8.00 h | 6.95 µM (≈ 3.68 µg/mL) | 1.45 h | 16 µL/min/mg | Selectivity Index Adult (S. mansoni adult worms; HepG2 CC50 over adult worm EC50): 29464; EC50 (S. mansoni adult worms; Schistosoma mansoni, adult worms): 3.6 nM; CC50 at 24 h (MTT assay on HepG2 cells): 106000 nM; global H3K4 methylation compared to the negative control (DMSO) (H3K4 methylation): significant % decrease |
